{
  "source": "paper PMC12775653",
  "about": "“Quantitative dynamic granzyme B PET imaging to characterize novel combination immunotherapy response in preclinical glioblastoma models” (Theranostics, 2026)",
  "target": "T1, granzyme B (Mus musculus, UniProt P04187)",
  "T1 construct": "from tissue; host or cells: intracranial GSC005-luc tumour in C57BL/6 mice; granzyme B comes from the host's cytotoxic immune cells",
  "T1 sequence (P04187 21-247)": "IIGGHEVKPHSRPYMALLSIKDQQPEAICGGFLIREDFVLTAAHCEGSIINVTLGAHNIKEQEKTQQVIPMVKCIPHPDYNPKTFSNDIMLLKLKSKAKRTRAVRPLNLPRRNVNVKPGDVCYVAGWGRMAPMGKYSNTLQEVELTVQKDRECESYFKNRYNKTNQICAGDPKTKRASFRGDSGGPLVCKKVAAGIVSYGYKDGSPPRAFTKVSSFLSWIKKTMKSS",
  "assay_type": "in vivo, mouse (C57BL/6, orthotopic GSC005-luc GBM)",
  "source_text": "Dynamic [^64Cu]-NOTA-GZP PET was collected using a preclinical small animal PET/CT imaging system (GNEXT, Sofie Bioscience, Culver City, CA) seven days from the start of therapy. Scan consisted of an 80-min list-mode acquisition, with 100 ± 10 μCi (3.7 ± 0.37 MBq) of [^64Cu]-NOTA-GZP being administered via tail-vein catheter followed by a saline flush. Subsequently, a 5-min computed tomography (CT, voltage, 80 kVp; current, 150 μA) scan was collected for anatomical reference. A subset of mice (N = 5 treatment, 3 controls) was humanely euthanized, and brains were excised for a 1 h ex vivo PET/CT brain scan and, upon completion, placed in formalin and fixed overnight. Remaining mice were monitored longitudinally for survival.\nDynamic PET data was reconstructed using a 3D ordered-subset expectation maximization algorithm (24 subsets, 3 iterations) with a reconstructed voxel size of 0.5 × 0.5 × 0.5 mm^3 based on a 12 × 10 s, 6 × 30 s, 5 × 60 s, 10 × 300 s, 1 × 1200 s framing sequence (Figure 2A). PET sequences were rigidly registered to the reference anatomical CT scan. Voxel-wise conversion to standardized uptake value (SUV) was then performed based on the following equation:\nGSC005-luc orthotopic mouse models were developed and treated with single dose M002 followed by a dose of anti-PD1 on days 1, 4 and 7 (N = 22), or saline at similar timepoints (N = 9). 80-min dynamic [^64Cu]-NOTA-GZP PET/CT scans were performed at day 4 and 7 following treatment, with tumor and contralateral brain time activity curves being fitted to a 2TCM as selected based on prior comparative assessment. Metrics for average SUV, k1, k2, k3 and k4 were quantified on the tumor region with additional normalization to contralateral healthy brain (TBR).\nIn addition, anatomical MRI scans were collected prior to the start of treatment (D-1), and at days 3, 6 and 13 following treatment for anatomical PET/CT reference and monitoring of tumor volumes. Longitudinal monitoring was performed via BLI every three days. […] Response was defined based on a threshold of less than 20% increase in BLI signal one month following initial immunotherapy administration as previously reported.",
  "note": "* marks the point of attachment. NOTA = O=C(O)CN1CCN(CC(=O)O)CCN(CC(=O)*)CC1",
  "data": [
    {"substance": "{NOTA}-AGGIEFD-aldehyde [[^64Cu]-NOTA-GZP, NOTA-Ala-Gly-Gly-Ile-Glu-Phe-Asp-CHO (NOTA-GZP) radiolabeled with ^64Cu; granzyme B specific PET imaging agent]", "values": [
      {"measurement": "k3 (tracer binding rate), contralateral brain", "setting": "2TCM, combination immunotherapy-treated mice, four days following therapy, contralateral brain", "result": "0.04 ± 0.05", "unit": "min⁻¹"},
      {"measurement": "k3 (tracer binding rate), tumor", "setting": "2TCM, combination immunotherapy-treated mice, four days following therapy, tumor", "result": "0.13 ± 0.8", "unit": "min⁻¹"},
      {"measurement": "SUV TBR", "setting": "mouse, in vivo", "result": "2.50 ± 1.68"},
      {"measurement": "k1 TBR", "setting": "mouse, in vivo", "result": "1.18 ± 0.75"}
    ]}
  ]
}
